Measurements as given in publication doi:10.1101/2024.12.25.630315 (bioRxiv, 2024).

Key:
Nectin-4 [1] = biological target: T1, Nectin-4 (Homo sapiens, UniProt Q96NY8); assay: In vivo blocking of [^68Ga]AJ647 uptake by non-radioactive AJ647, HT1376 xenografts; set-up: species or system mouse; conditions: 1 mg/kg non-radioactive AJ647; PET
T1 construct: host or cells: HT1376, SCaBER, T24, RT112, UC9, UC14 urothelial carcinoma cells; HT1376 xenografts in NSG mice
T1 sequence (Q96NY8 32-510): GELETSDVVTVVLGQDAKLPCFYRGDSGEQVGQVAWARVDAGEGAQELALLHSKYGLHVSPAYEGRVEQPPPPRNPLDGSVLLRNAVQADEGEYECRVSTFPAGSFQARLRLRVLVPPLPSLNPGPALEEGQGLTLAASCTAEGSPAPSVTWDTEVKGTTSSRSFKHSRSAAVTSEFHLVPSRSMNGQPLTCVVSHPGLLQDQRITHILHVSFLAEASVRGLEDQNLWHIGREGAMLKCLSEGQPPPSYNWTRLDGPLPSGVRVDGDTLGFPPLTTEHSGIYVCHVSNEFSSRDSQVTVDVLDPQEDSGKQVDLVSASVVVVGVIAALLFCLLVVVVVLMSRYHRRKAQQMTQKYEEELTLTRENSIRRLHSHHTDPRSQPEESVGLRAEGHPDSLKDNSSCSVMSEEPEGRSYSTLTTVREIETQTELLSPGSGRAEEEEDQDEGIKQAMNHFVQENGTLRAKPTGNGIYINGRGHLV
Procedure: Dynamic PET-MR imaging was performed for up to 90 minutes post-injection. […] By 60 minutes, the tumor contrast had further improved due to background radiotracer clearance, as evidenced by the percent injected activity per cubic centimeter (%IA/cc) values derived from [^68Ga]AJ647 PET (Fig. 4B). […] In contrast, minimal uptake was detected in non–Nectin-4-expressing tissues such as muscle.
Mice with tumor volume of ~100–150 mm^3 were injected with ~[…] (7.4 MBq) of [^68Ga]AJ647 in […] of 5% ethanol in saline intravenously and anesthetized under 2.5% isoflurane. PET-CT images were acquired at 60 minutes after radiotracer injection at 5 min/bed in an ARGUS small-animal PET/CT scanner (Sedecal, Madrid, Spain) as described (n=3 unless otherwise noted). PET-MR images were acquired on a simultaneous 7T Bruker PET-MR scanner. Dynamic imaging was conducted to evaluate pharmacokinetics of [^68Ga]AJ647. […] The SUV values were calculated by finding percent of injected activity (%IA) based on a calibration factor obtained from a known radioactive quantity, then normalizing by mice weight. […] For change in accessible Nectin-4 levels following EV treatment, ΔSUV was calculated by subtracting baseline (pre-treatment) uptake from post-therapy uptake of [^68Ga]AJ647. Target engagement was quantified by normalizing this change by initial SUV in same subject controls. […]

Nectin-4 [2] = biological target: T1, Nectin-4; assay: In vitro blocking of [^68Ga]AJ647 uptake by non-radioactive AJ647; assay type: cell-based; conditions: pre-incubation with 2 μM non-radioactive AJ647
Procedure: Figure 3. In vitro specificity of [^68Ga]AJ647 for Nectin-4 in bladder cancer cell lines A) [^68Ga]AJ647 binding (percent incubated activity, %IA) to various bladder cancer cell lines. Cells were incubated with ~37 kBq (~1 μCi) [^68Ga]AJ647 at 4°C for 1 hour. […] B) Flow cytometry analysis of Nectin-4 receptor expression across different bladder cancer cell lines, providing insight into the variability in receptor density among the cell lines. […] Data in figure A and C are represented as mean ± SD. Pearson correlation used in C.

effect on [^68Ga]AJ647 tracer uptake in HT1376 xenografts (Nectin-4 [1]): reduction in tracer uptake
effect of blocking dose on [^68Ga]AJ647 uptake in bladder cancer cell lines (Nectin-4 [2]): significantly reduced radiotracer uptake
Structure (SMILES): CSCC[C@@H]1NC(=O)[C@@H]2CSCCC(=O)N3CN(CN(C3)C(=O)CCSC[C@H](NC(=O)CCOCCOCCOCCOCCOCCOCCOCCOCCOCCOCCOCCOCCNC(=O)CN3CCN(CC(=O)O)CCN(CC(=O)O)CC3)C(=O)N3CCC[C@H]3C(=O)N[C@@H](Cc3cccc4ccccc34)C(=O)N[C@@H](CC(=O)O)C(=O)N2)C(=O)CCSC[C@@H](C(N)=O)NC(=O)[C@H](Cc2c[nH]c3ccccc23)NC(=O)[C@@H]2C[C@@H](O)CN2C(=O)[C@@H]2CCCN2C(=O)[C@H]([C@@H](C)O)NC(=O)[C@H](CO)NC(=O)[C@H](Cc2c[nH]c3ccccc23)NC(=O)[C@@H](CC(=O)O)NC(=O)[C@H](CCCCNC(=N)N)NC1=O [AJ647]
